Data: US20110313001A1, “TRIAZOLE DERIVATIVES FOR TREATMENT OF ALZHEIMER'S DISEASE” (priority 2008, published 2011)
Where a name gives a salt, the structure may show the parent alone.

Tested on: Aβ(1-42)
Test: Cell-based γ-secretase assay, Aβ(1-42) inhibition
Conditions: Homo sapiens; SH-SY5Y neuroblastoma cells overexpressing SPA4CT
Procedure: Cell-Based γ-Secretase Assay
Human SH-SY5Y neuroblastoma cells overexpressing the direct γ-secretase substrate SPA4CT were induced with sodium butyrate (10 mM) for 4 hours prior to plating. Cells were plated at 35,000 cells/well/100 μl in 96-well plates in phenol red-free MEM/10% FBS, 50 mM HEPES, 1% Glutamine and incubated for 2 hrs at 37° C., 5% CO2.
Compounds for testing were diluted into Me2SO to give a ten point dose-response curve. Typically 10 μl of these diluted compounds in Me2SO were further diluted into 182 μl dilution buffer (phenol red-free MEM/10% FBS, 50 mM HEPES, 1% Glutamine) and 10 μl of each dilution was added to the cells in 96-well plates (yielding a final Me2SO concentration of 0.5%). Appropriate vehicle and inhibitor controls were used to determine the window of the assay.
After incubation overnight at 37° C., 5% CO2, 25 μl and 50 μl media were transferred into a standard Meso avidin-coated 96-well plate for detection of Aβ(40) and Aβ(42) peptides, respectively. 25 μl Meso Assay buffer (PBS, 2% BSA, 0.2% Tween-20) was added to the Aβ(40) wells followed by the addition of 25 μl of the respective antibody premixes to the wells:
Aβ(40) premix: 1 μg/ml ruthenylated G2-10 antibody, 4 μg/ml; and biotinylated 4G8 antibody diluted in Origen buffer
Aβ(42) premix: 1 μg/ml ruthenylated G2-11 antibody, 4 μg/ml; and biotinylated 4G8 antibody diluted in Origen buffer
(Biotinylated 4G8 antibody supplied by Signet Pathology Ltd; G2-10 and G2-11 antibodies supplied by Chemicon)
After overnight incubation of the assay plates on a shaker at 4° C., the Meso Scale Sector 6000 Imager was calibrated according to the manufacturer's instructions. After washing the plates 3 times with 150 μl of PBS per well, 150 μl Meso Scale Discovery read buffer was added to each well and the plates were read on the Sector 6000 Imager according to the manufacturer's instructions.
LD50 and IC50 values for inhibition of Aβ(40) and Aβ(42) were calculated by nonlinear regression fit analysis using the appropriate software (eg. Excel fit). The total signal and the background were defined by the corresponding Me2SO and inhibitor controls.

SMILES | IC50 [nM]
COc1cc(-c2cn(Cc3ccc(C(C)(C)C)cc3)nn2)ccc1-c1ccnc(C)c1 [Example 3] | 335
COc1cc(-c2cn(Cc3ccc(-c4nc5ccccc5o4)cc3)nn2)ccc1-c1ccnc(C)c1 [Example 5] | 392
COc1cc(-c2cn(Cc3ccc4c(c3)C(C)(C)CCC4(C)C)nn2)ccc1-c1ccnc(C)c1 [Example 6] | 172

Other lines, results leading:

IC50 [nM] | SMILES
203 | COc1cc(-c2cn(Cc3cc(C(F)(F)F)cc(C(F)(F)F)c3)nn2)ccc1-c1ccnc(C)c1 [Example 1, 4-{4-[1-(3,5-Bis-trifluoromethyl-benzyl)-1H-1,2,3-triazol-4-yl]-2-methoxy-phenyl}-2-methyl-pyridine trifluoromethansulfonate salt]
598 | COc1cc(-c2cn(Cc3cc(F)cc(Cl)c3)nn2)ccc1-c1ccnc(C)c1 [Example 4]
